Test results from patent US20030045508A1, “(1r,cis)-4-(4-amino-7h-pyrrolo'2,3-i(d) pyrimidine-7-yl)-2-cyclopentene-1-methanol derivatives as antiviral” (priority 2002, published 2003).

Legend:
[1] = Acid stability (acid-mediated hydrolytic decomposition, simulated stomach conditions); assay type: physicochemical; settings: 0.1 N hydrochloric acid at 25° C.
Experimental: The compound of Example 3 was tested for stability towards acid-mediated hydrolytic decomposition employing a test designed to simulate stomach conditions. The compound was incubated at an initial concentration of 0.27 mg/mL in dilute hydrochloric acid at pH 1 for 72 hours at 37° C. HPLC was run immediately for t=0 and at intervals up to approximately 72 hours.
In contrast, the phosphoramidate of 2′,3′-dideoxy-adenosine (Compound 1093, PCT/GB9600580) had entirely decomposed by t=13 hours and 2′,3′-didehydro-2′,3′-dideoxy-adenosine (Compound 1001, PCT/GB96/00580) had entirely decomposed at t=0 in 0.1 N hydrochloric acid at 25° C.

| SMILES | time t at which entirely decomposed [1] | melting point |
| --- | --- | --- |
| Nc1ncnc2c1ncn2[C@H]1C=C[C@@H](CO)O1 [Compound 1001, 2′,3′-didehydro-2′,3′-dideoxy-adenosine] | 0 h | – |
| Nc1ncnc2c1ccn2[C@@H]1C=C[C@H](CO)C1 [Example 1, (+)-(1R, cis)-4-[4-Amino-7H-pyrrolo(2,3-d)pyrimidin-7-yl]-2-cyclopentene-1-methanol] | – | 165 to 168 °C |
